Results taken from PubChem BioAssay (NCI).
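GI50: concentration for 50% inhibition of growth. TGI denotes the concentration required for complete inhibition of growth.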

Legend:
Test in all cases: NCI tumour cell line growth inhibition, 384-well format; in the data active = GI50 below about 0.43 µM; inactive = the rest
786-0 renal = test system: 786-0 renal
A498 renal = test system: A498 renal
A549 NSCLC = test system: A549 NSCLC
ACHN renal = test system: ACHN renal
BT-549 breast = test system: BT-549 breast
CAKI-1 renal = test system: CAKI-1 renal
CCRF-CEM leukemia = test system: CCRF-CEM leukemia
COLO 205 colon = test system: COLO 205 colon
DU-145 prostate = test system: DU-145 prostate
EKVX NSCLC = test system: EKVX NSCLC
HCC-2998 colon = test system: HCC-2998 colon
HCT-116 colon = test system: HCT-116 colon
HCT-15 colon = test system: HCT-15 colon
HL-60(TB) leukemia = test system: HL-60(TB) leukemia
HOP-62 NSCLC = test system: HOP-62 NSCLC
HOP-92 NSCLC = test system: HOP-92 NSCLC
HS 578T breast = test system: HS 578T breast
HT29 colon = test system: HT29 colon
IGROV1 ovarian = test system: IGROV1 ovarian
K-562 leukemia = test system: K-562 leukemia
KM12 colon = test system: KM12 colon
LOX IMVI melanoma = test system: LOX IMVI melanoma
M14 melanoma = test system: M14 melanoma
MALME-3M melanoma = test system: MALME-3M melanoma
MCF7 breast = test system: MCF7 breast
MDA-MB-231 breast = test system: MDA-MB-231 breast
MDA-MB-435 melanoma = test system: MDA-MB-435 melanoma
MDA-MB-468 breast = test system: MDA-MB-468 breast
MOLT-4 leukemia = test system: MOLT-4 leukemia
NCI-H226 lung = test system: NCI-H226 lung
NCI-H23 lung = test system: NCI-H23 lung
NCI-H322M lung = test system: NCI-H322M lung
NCI-H460 NSCLC = test system: NCI-H460 NSCLC
NCI-H522 lung = test system: NCI-H522 lung
NCI/ADR-RES ovarian = test system: NCI/ADR-RES ovarian
OVCAR-3 ovarian = test system: OVCAR-3 ovarian
OVCAR-4 ovarian = test system: OVCAR-4 ovarian
OVCAR-5 ovarian = test system: OVCAR-5 ovarian
OVCAR-8 ovarian = test system: OVCAR-8 ovarian
PC-3 prostate = test system: PC-3 prostate
RPMI-8226 leukemia = test system: RPMI-8226 leukemia
RXF 393 renal = test system: RXF 393 renal
SF-268 CNS = test system: SF-268 CNS
SF-295 CNS = test system: SF-295 CNS
SF-539 CNS = test system: SF-539 CNS
SK-MEL-28 melanoma = test system: SK-MEL-28 melanoma
SK-MEL-5 melanoma = test system: SK-MEL-5 melanoma
SK-OV-3 ovarian = test system: SK-OV-3 ovarian
SN12C renal = test system: SN12C renal
SNB-19 CNS = test system: SNB-19 CNS
SNB-75 CNS = test system: SNB-75 CNS
SR leukemia = test system: SR leukemia
SW-620 colon = test system: SW-620 colon
T-47D breast = test system: T-47D breast
TK-10 renal = test system: TK-10 renal
U251 glioblastoma = test system: U251 glioblastoma
UACC-257 melanoma = test system: UACC-257 melanoma
UACC-62 melanoma = test system: UACC-62 melanoma
UO-31 renal = test system: UO-31 renal

CC1CCC(n2c3cnccc3c3cnc(Nc4ccc5c(n4)CCN(C(=O)CO)C5)nc32)CC1 (stereo not given)
16.2 µM: TGI (HCT-116 colon)
42.2 µM: TGI (DU-145 prostate)
2.71 µM: TGI (MOLT-4 leukemia)
57.8 µM: TGI (MDA-MB-468 breast)
> 21.9 µM: TGI (ACHN renal)
1.75 µM: TGI (HL-60(TB) leukemia)
active: GI50 (HL-60(TB) leukemia) 0.286 µM | GI50 (KM12 colon) 0.293 µM | GI50 (MOLT-4 leukemia) 0.278 µM | GI50 (RPMI-8226 leukemia) 0.253 µM | GI50 (SR leukemia) 0.316 µM
> 26.4 µM: TGI (NCI-H322M lung)
> 72.4 µM: TGI (BT-549 breast)
14.4 µM: TGI (MDA-MB-231 breast)
4.05 µM: TGI (KM12 colon)
> 40 µM: TGI (OVCAR-4 ovarian)
4.74 µM: TGI (NCI-H460 NSCLC)
> 81.2 µM: TGI (PC-3 prostate)
> 20.6 µM: TGI (HOP-92 NSCLC)
15.2 µM: TGI (SF-268 CNS)
> 100 µM: TGI (A549 NSCLC) | TGI (EKVX NSCLC) | TGI (HCC-2998 colon) | TGI (HCT-15 colon) | TGI (HOP-62 NSCLC) | TGI (HS 578T breast) | TGI (HT29 colon) | TGI (IGROV1 ovarian) | TGI (K-562 leukemia) | TGI (LOX IMVI melanoma) | TGI (M14 melanoma) | TGI (MALME-3M melanoma) | TGI (MCF7 breast) | TGI (MDA-MB-435 melanoma) | TGI (NCI-H226 lung) | TGI (NCI-H23 lung) | TGI (NCI-H522 lung) | TGI (NCI/ADR-RES ovarian) | TGI (OVCAR-5 ovarian) | TGI (OVCAR-8 ovarian) | TGI (RXF 393 renal) | TGI (SF-539 CNS) | TGI (SK-MEL-28 melanoma) | TGI (SK-OV-3 ovarian) | TGI (SN12C renal) | TGI (SNB-19 CNS) | TGI (T-47D breast) | TGI (TK-10 renal) | TGI (U251 glioblastoma) | TGI (UACC-257 melanoma) | TGI (UACC-62 melanoma) | TGI (UO-31 renal)
> 73.9 µM: TGI (SF-295 CNS)
14.2 µM: TGI (SW-620 colon)
inactive: GI50 ([…]-0 renal) 12.4 µM | GI50 (A498 renal) 1.78 µM | GI50 (A549 NSCLC) 2.15 µM | GI50 (ACHN renal) 2.59 µM | GI50 (BT-549 breast) 6.54 µM | GI50 (CAKI-1 renal) 1.42 µM | GI50 (CCRF-CEM leukemia) 0.638 µM | GI50 (COLO 205 colon) 0.846 µM | GI50 (DU-145 prostate) 7.86 µM | GI50 (HCC-2998 colon) 1.69 µM | GI50 (HCT-116 colon) 1.69 µM | GI50 (HCT-15 colon) 0.656 µM | GI50 (HOP-62 NSCLC) 3.66 µM | GI50 (HOP-92 NSCLC) 6.32 µM | GI50 (HS 578T breast) 18.3 µM | GI50 (HT29 colon) 6.05 µM | GI50 (IGROV1 ovarian) 8.39 µM | GI50 (K-562 leukemia) 3.64 µM | GI50 (LOX IMVI melanoma) 2.4 µM | GI50 (M14 melanoma) 8.48 µM | GI50 (MALME-3M melanoma) 19.8 µM | GI50 (MCF7 breast) 1.04 µM | GI50 (MDA-MB-231 breast) 2.91 µM | GI50 (MDA-MB-435 melanoma) 8.55 µM | GI50 (MDA-MB-468 breast) 13.5 µM | GI50 (NCI-H226 lung) 9.33 µM | GI50 (NCI-H23 lung) 3.4 µM | GI50 (NCI-H322M lung) 8.61 µM | GI50 (NCI-H460 NSCLC) 0.749 µM | GI50 (NCI-H522 lung) 6.06 µM | GI50 (NCI/ADR-RES ovarian) 13.9 µM | GI50 (OVCAR-3 ovarian) 5.68 µM | GI50 (OVCAR-4 ovarian) 15.1 µM | GI50 (OVCAR-5 ovarian) 2.23 µM | GI50 (OVCAR-8 ovarian) 6.42 µM | GI50 (PC-3 prostate) 7.58 µM | GI50 (RXF 393 renal) > 20.7 µM | GI50 (SF-268 CNS) 4.47 µM | GI50 (SF-539 CNS) 5.87 µM | GI50 (SK-MEL-28 melanoma) 11.9 µM | GI50 (SK-MEL-5 melanoma) 2.36 µM | GI50 (SK-OV-3 ovarian) 21.6 µM | GI50 (SN12C renal) 16.3 µM | GI50 (SNB-19 CNS) 7.56 µM | GI50 (SNB-75 CNS) 4.47 µM | GI50 (SW-620 colon) 1.05 µM | GI50 (T-47D breast) > 100 µM | GI50 (TK-10 renal) 5.16 µM | GI50 (U251 glioblastoma) 7.16 µM | GI50 (UACC-257 melanoma) > 100 µM | GI50 (UACC-62 melanoma) 6.15 µM | GI50 (UO-31 renal) 15.1 µM
0.829 µM: TGI (SR leukemia)
1.71 µM: TGI (RPMI-8226 leukemia)
> 94.8 µM: TGI (SK-MEL-5 melanoma)
> 28 µM: TGI (CAKI-1 renal)
2.31 µM: TGI (CCRF-CEM leukemia)
66.9 µM: TGI (786-0 renal)
12.6 µM: TGI (OVCAR-3 ovarian)
9.42 µM: TGI (A498 renal)
> 20.3 µM: TGI (SNB-75 CNS)
